“Also recorded” adds a separate entry of the source.
Experiments:
Ocy454 cells [1] = test: cAMP radioimmunoassay; format: cell-based, mouse; conditions: 20 minutes; FIG. 14B
Description: Cells, in 96 well plates, were treated with indicated ligands for 20 minutes at room temperature in the presence of the phosphodiesterase inhibitor 3-isobutyl-1-methylxanthine (IBMX, Sigma I5879, 2 mM). The medium was then removed and cells were lysed in 50 mM HCl and transferred to −80C. Thawed lysates were diluted 1:5 with dH2O, and an 10 μl aliquot was assessed for cAMP content by radioimmunoassay using ^125I-cAMP analog as a tracer and unlabeled cAMP to generate a standard curve.

Ocy454 cells [2] = test: RNA-seq of treated Ocy454 cells; format: cell-based, mouse
Description: The ability of YKL-05-093 to mimic the effects of PTH with respect to SOST and RANKL gene regulation supports the hypothesis that the actions of YKL-05-093 might mimic the effects of PTH on many genes. Therefore, RNA-seq was perfumed on Ocy454 cells treated for four hours with vehicle, PTH (1 nM), or YKL-05-093 (0.5 μM) to determine the overlap in global gene regulation by these two agents. […] Of the 446 PTH-regulated genes, 142 (32%) were co-regulated in the same direction by YKL-05-093 (FIGS. 6A and 6B and Table 3 for differentially expressed genes, and Table 4 for all RNA-seq data). This significant overlap was not due to random chance (FIGS. 15A and 15B). Gene ontology analysis for the genes regulated by both PTH and YKL-05-093 is shown in FIGS. 15C and 15D: many of the co-regulated genes fit into categories of interest such as “ossification” and “mesenchyme development”,
Total RNA was subjected to rRNA depletion using RiboZero kit (Illumina) followed by NGS library construction using NEBNext Ultra Directional RNA Library Prep Kit for Illumina (New England Biolabs). Experimental duplicates were performed for each condition. Sequencing was performed on Illumina HiSeq 2500 instrument, resulting in an average of 33 million pairs of 50 bp reads per sample. Sequencing reads were mapped to the mouse reference genome (mm10/GRCm38) using STAR (bioinformatics.oxfordjournals.org/content/early/2012/10/25/bioinformatics.bts635). Gene expression counts were calculated using HTSeq v.0.6.0 (www.huber.embl.de/users/anders/HITSeq/doc/overview.html) based on a current Ensembl annotation file for mm10/GRCm38 (release 75). Differential expression analysis was performed using EgdeR package based on the criteria of >2-fold change in expression value versus control and false discovery rates (FDR)<0.05. Venn diagrams from gene set analysis were generated using genes with >1.5 fold change in expression values and FDR <0.05. Significance testing for gene set overlap was performed according to a standard hypergeometric distribution, p-values <2.2*10^−16. The accession number for the RNA-seq dataset reporter in this paper is GEO: GSE76932 (www.ncbi.nlm.nih.gov/geo/query/acc.cgi?acc=GSE76932).

[3] = In vivo toxicity experiments (weight, CBC, serum chemistry); design: species or system mouse
Source text: Blood was obtained for the complete blood count (CBC) measurement, and serum was obtained for the glucose, blood urea nitrogen (BUN), cholesterol, triglycerides, ALT, Creatine kinase (CK), amylase, and total protein measurements. […] “WBC” refers to “white blood cell”. “Hgb” refers to “hemoglobin”. “Pit” refers to “platelet”.

tyrosine kinase Src = tyrosine kinase Src (Homo sapiens, UniProt P12931); conditions: cited from earlier work
[4] = tested on: oophorectomized (OVX) female C57B/6 mice; test: OVX mice: micro-CT, histomorphometry, bone turnover markers; format: in vivo, mouse
Description: Assessment of bone morphology and microarchitecture was performed with high-resolution micro-computed tomography (pCT40; Scanco Medical, Brüttisellen, Switzerland). In brief, the distal femoral metaphysis and mid-diaphysis were scanned using 70 kVp peak x-ray tube potential, 113 mAs x-ray tube current, 200 ms integration time, and 10-μm isotropic voxel size. Cancellous bone was assessed in the distal metaphysis and cortical bone was assessed in the mid-diaphysis. The femoral metaphysis region began 1700 μm proximal to the distal growth plate and extended 1500 μm distally. Cancellous bone was separated from cortical bone with a semiautomated contouring program. For the cancellous bone region, bone volume fraction (BV/TV, %), trabecular thickness (Tb.Th, mm), trabecular separation (Tb.Sp, mm), trabecular number (Tb.N, 1/mm), connectivity density (Conn.D or ConnD, 1/mm^3), and structure model index (SMI) were assessed. Transverse CT slices were also acquired in a 500 μm long region at the femoral mid-diaphysis to assess total cross-sectional area, cortical bone area, and medullary area (Tt.Ar, Ct.Ar, and Ma.Ar, respectively, all mm^2); bone area fraction (Ct.Ar/Tt.Ar, %), cortical thickness (Ct.Th, mm), porosity (Ct.Po, %) and minimum (Imin, mm^4), maximum (Imax, mm^4), and polar (J, mm^4) moments of inertia. Bone was segmented from soft tissue using the same threshold, 300 mg HA/cm^3 for trabecular and 733 mg HA/cm^3 for cortical bone. Scanning and analyses adhered to the guidelines for the use of micro-CT for the assessment of bone architecture in rodents (74). For the primary spongiosa region (where intermittent PTH treatment has its predominant effect) analyzed in FIG. 13A, coronal CT slices were evaluated in a 500 μm (50 slices) region located centrally in the bone. […] The primary spongiosa bone region was identified by semi-manually contouring the region of interest. Images were thresholded using an adaptive-iterative algorithm. The average adaptive-iterative threshold of control mice (WT, vehicle treated) for the region of interest (299 mgHA/cm^3) were then used to segment bone from soft tissue for all distal femur images. Micro-CT analysis was done based on sample numbers in a completely blinded manner.
Right tibia from 8-week-old mice were subjected to bone histomorphometric analysis. […] The structural, dynamic and cellular parameters were calculated and expressed according to the standardized nomenclature (75).
48 female C57B/6 mice were subjected to sham surgery (SHAM; n=24) or oophorectomy (n=24) at 12 weeks of age. […] The mice were assessed by micro-CT (μ-CT) of the femur and L5 vertebrae, and static/dynamic histomorphometry of the tibia.

Sequence of tyrosine kinase Src (P12931 whole entry): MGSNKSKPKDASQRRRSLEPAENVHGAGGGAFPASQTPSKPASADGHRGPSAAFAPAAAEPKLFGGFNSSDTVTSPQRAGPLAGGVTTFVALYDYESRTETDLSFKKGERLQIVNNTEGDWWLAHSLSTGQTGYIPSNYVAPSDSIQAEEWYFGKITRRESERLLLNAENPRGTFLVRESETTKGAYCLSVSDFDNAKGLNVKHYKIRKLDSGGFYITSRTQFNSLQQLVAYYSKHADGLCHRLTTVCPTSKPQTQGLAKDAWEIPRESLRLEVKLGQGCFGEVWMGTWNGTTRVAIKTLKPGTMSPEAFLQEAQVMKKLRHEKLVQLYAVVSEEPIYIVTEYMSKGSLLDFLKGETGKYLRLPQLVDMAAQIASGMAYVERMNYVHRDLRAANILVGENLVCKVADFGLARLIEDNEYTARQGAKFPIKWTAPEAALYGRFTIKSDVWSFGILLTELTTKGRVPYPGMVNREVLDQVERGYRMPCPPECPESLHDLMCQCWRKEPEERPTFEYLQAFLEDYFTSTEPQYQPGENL

COc1ccc(N2C(=O)N(c3c(C)cccc3C)Cc3cnc(Nc4ccc(C5CCN(C)CC5)c(OC)c4)nc32)c(OC)c1 [YKL-05-093]
cAMP levels (Ocy454 cells [1]): does not induce cAMP generation; also recorded: without increasing cAMP levels
genes down-regulated by both PTH and YKL-05-093 (Ocy454 cells [2]): 45 genes
genes down-regulated by the agent alone (Ocy454 cells [2]): 59 genes
genes up-regulated by both PTH and YKL-05-093 (Ocy454 cells [2]): 97 genes
genes up-regulated by the agent alone (Ocy454 cells [2]): 56 genes

COc1ccc(N2C(=O)N(c3c(C)cccc3Cl)Cc3cnc(Nc4ccc(C5CCN(C)CC5)cc4OC)nc32)nc1 [YKL-05-099]
growth or peripheral blood counts ([3]; 4 week treatment): Neither PTH nor YKL-05-099 altered growth or peripheral blood counts
weight gain ([3]; 4 week treatment (weeks 20-24)): normal weight gain
toxicity judged from hematology data ([3]; 4 week treatment, FIGS. 36A to 36D): not toxic under the test conditions
inhibition of the tyrosine kinase Src (tyrosine kinase Src): known to inhibit the tyrosine kinase Src
osteoblast numbers ([4]; FIG. 32A): increased osteoblast numbers
osteoclast activity / eroded surfaces ([4]; FIG. 32C): reduced eroded surfaces
bone formation rate ([4]; FIG. 33C): increased
trabecular bone mass ([4]; distal femur and L5 vertebrae): increased trabecular bone mass at both skeletal sites
